Results: ChEMBL document CHEMBL3885861, “Open TG-GATES”

Species on record: Rattus norvegicus
Test: Open TG-GATES - Regimen: Daily Repeat
Format: toxicity, organism-based, Sprague-Dawley
Design: regimen Daily Repeat, gender Male, age 6 weeks
Conditions: in vivo, po, 250 mg/kg, route gavage, dose level Middle; for APTT / Bas / Eos / Fbg / Hb / Ht / Lym / MCH / MCHC / MCV / Mono / Neu / PT / Plat / RBC / Ret / WBC: tissue Blood; for KIDNEY_L / KIDNEY_R / KIDNEY_TOTAL: tissue Kidney; for LIVER: tissue Liver; for A/G / ALP / ALT / AST / BUN / CRE / Ca / Cl / DBIL / GLC / IP / K / LDH / Na / PL / RALB / TBIL / TC / TG / TP / gamma-GTP: tissue Plasma

CN(C/C=C/C#CC(C)(C)C)Cc1cccc2ccccc12 [TERBINAFINE]
TERMINAL_BW (72 h, time 3 day): 237.2 g | APTT (72 h, time 3 day): 17.7 s | Bas (72 h, time 3 day): 1% | Eos (72 h, time 3 day): 1% | Fbg (72 h, time 3 day): 223.6 mg/dL | Hb (72 h, time 3 day): 13.6 g/dL | Ht (72 h, time 3 day): 40.4% | Lym (72 h, time 3 day): 77.2% | MCH (72 h, time 3 day): 21.7 pg | MCHC (72 h, time 3 day): 33.7% | MCV (72 h, time 3 day): 64.4 fL | Mono (72 h, time 3 day): 3.4% | Neu (72 h, time 3 day): 18% | PT (72 h, time 3 day): 11.6 s | Plat (72 h, time 3 day): 122 x10_4/uL | RBC (72 h, time 3 day): 628.6 x10_4/ul | Ret (72 h, time 3 day): 5.9% | WBC (72 h, time 3 day): 115.2 x10_2/uL | KIDNEY_L (72 h, time 3 day): 1.1 g | KIDNEY_R (72 h, time 3 day): 1.1 g | KIDNEY_TOTAL (72 h, time 3 day): 2.2 g | LIVER (72 h, time 3 day): 12.2 g | A/G (72 h, time 3 day): 1.7 | ALP (72 h, time 3 day): 954.4 IU/L | ALT (72 h, time 3 day): 39.8 IU/L | AST (72 h, time 3 day): 71.4 IU/L | BUN (72 h, time 3 day): 14.8 mg/dL | CRE (72 h, time 3 day): 0.4 mg/dL | Ca (72 h, time 3 day): 10.5 mg/dL | Cl (72 h, time 3 day): 103 meq/L | DBIL (72 h, time 3 day): 0.078 mg/dL | GLC (72 h, time 3 day): 189 mg/dL | IP (72 h, time 3 day): 7.5 mg/dL | K (72 h, time 3 day): 4 meq/L | LDH (72 h, time 3 day): 197 IU/L | Na (72 h, time 3 day): 141.4 meq/L | PL (72 h, time 3 day): 141.2 mg/dL | RALB (72 h, time 3 day): 3.5 g/dL | TBIL (72 h, time 3 day): 0.1 mg/dL | TC (72 h, time 3 day): 78.6 mg/dL | TG (72 h, time 3 day): 65.6 mg/dL | TP (72 h, time 3 day): 5.5 g/dL | gamma-GTP (72 h, time 3 day): 1.4 IU/L | TERMINAL_BW ([…], time 7 day): 268.6 g | TERMINAL_BW ([…], time 14 day): 323.9 g | TERMINAL_BW ([…], time 28 day): 411.4 g | APTT ([…], time 7 day): 21.6 s | Bas ([…], time 7 day): 1% | Eos ([…], time 7 day): 0.6% | Fbg ([…], time 7 day): 206 mg/dL | Hb ([…], time 7 day): 13.7 g/dL | Ht ([…], time 7 day): 39.7% | Lym ([…], time 7 day): 81.6% | MCH ([…], time 7 day): 20.8 pg | MCHC ([…], time 7 day): 34.6% | MCV ([…], time 7 day): 60.2 fL | Mono ([…], time 7 day): 2.4% | Neu ([…], time 7 day): 13.8% | PT ([…], time 7 day): 12.2 s | Plat ([…], time 7 day): 134.5 x10_4/uL | RBC ([…], time 7 day): 660 x10_4/ul | Ret ([…], time 7 day): 4.1% | WBC ([…], time 7 day): 128 x10_2/uL | APTT ([…], time 14 day): 19.5 s | Bas ([…], time 14 day): 1% | Eos ([…], time 14 day): 1% | Fbg ([…], time 14 day): 219.6 mg/dL | Hb ([…], time 14 day): 14.1 g/dL | Ht ([…], time 14 day): 41.7% | Lym ([…], time 14 day): 82.4% | MCH ([…], time 14 day): 19.9 pg | MCHC ([…], time 14 day): 33.8% | MCV ([…], time 14 day): 58.8 fL | Mono ([…], time 14 day): 2.8% | Neu ([…], time 14 day): 13% | PT ([…], time 14 day): 11.6 s | Plat ([…], time 14 day): 124.9 x10_4/uL | RBC ([…], time 14 day): 710 x10_4/ul | Ret ([…], time 14 day): 4.3% | WBC ([…], time 14 day): 135.6 x10_2/uL | APTT ([…], time 28 day): 22 s | Bas ([…], time 28 day): 1% | Eos ([…], time 28 day): 1.2% | Fbg ([…], time 28 day): 223.8 mg/dL | Hb ([…], time 28 day): 14.5 g/dL | Ht ([…], time 28 day): 41.4% | Lym ([…], time 28 day): 81% | MCH ([…], time 28 day): 20 pg | MCHC ([…], time 28 day): 35% | MCV ([…], time 28 day): 57.1 fL | Mono ([…], time 28 day): 2.2% | Neu ([…], time 28 day): 14.8% | PT ([…], time 28 day): 12.2 s | Plat ([…], time 28 day): 121.1 x10_4/uL | RBC ([…], time 28 day): 725.4 x10_4/ul | Ret ([…], time 28 day): 3.1% | WBC ([…], time 28 day): 136.2 x10_2/uL | KIDNEY_L ([…], time 7 day): 1.3 g | KIDNEY_R ([…], time 7 day): 1.2 g | KIDNEY_TOTAL ([…], time 7 day): 2.5 g | KIDNEY_L ([…], time 14 day): 1.4 g | KIDNEY_R ([…], time 14 day): 1.4 g | KIDNEY_TOTAL ([…], time 14 day): 2.8 g | KIDNEY_L ([…], time 28 day): 1.7 g | KIDNEY_R ([…], time 28 day): 1.7 g | KIDNEY_TOTAL ([…], time 28 day): 3.4 g | LIVER ([…], time 7 day): 13.7 g | LIVER ([…], time 14 day): 16.3 g | LIVER ([…], time 28 day): 20.2 g | A/G ([…], time 7 day): 1.6 | ALP ([…], time 7 day): 738.6 IU/L | ALT ([…], time 7 day): 37.6 IU/L | AST ([…], time 7 day): 70.4 IU/L | BUN ([…], time 7 day): 13.6 mg/dL | CRE ([…], time 7 day): 0.4 mg/dL | Ca ([…], time 7 day): 10.4 mg/dL | Cl ([…], time 7 day): 103.6 meq/L | DBIL ([…], time 7 day): 0.07 mg/dL | GLC ([…], time 7 day): 192 mg/dL | IP ([…], time 7 day): 7.4 mg/dL | K ([…], time 7 day): 4 meq/L | LDH ([…], time 7 day): 188.8 IU/L | Na ([…], time 7 day): 142.6 meq/L | PL ([…], time 7 day): 123.6 mg/dL | RALB ([…], time 7 day): 3.6 g/dL | TBIL ([…], time 7 day): 0.1 mg/dL | TC ([…], time 7 day): 65.2 mg/dL | TG ([…], time 7 day): 53.8 mg/dL | TP ([…], time 7 day): 5.8 g/dL | gamma-GTP ([…], time 7 day): 1 IU/L | A/G ([…], time 14 day): 1.5 | ALP ([…], time 14 day): 690 IU/L | ALT ([…], time 14 day): 34 IU/L | AST ([…], time 14 day): 62.8 IU/L | BUN ([…], time 14 day): 14.2 mg/dL | CRE ([…], time 14 day): 0.4 mg/dL | Ca ([…], time 14 day): 10.6 mg/dL | Cl ([…], time 14 day): 103.6 meq/L | DBIL ([…], time 14 day): 0.088 mg/dL | GLC ([…], time 14 day): 196.4 mg/dL | IP ([…], time 14 day): 8 mg/dL | K ([…], time 14 day): 3.8 meq/L | LDH ([…], time 14 day): 155.2 IU/L | Na ([…], time 14 day): 142.2 meq/L | PL ([…], time 14 day): 128 mg/dL | RALB ([…], time 14 day): 3.6 g/dL | TBIL ([…], time 14 day): 0.1 mg/dL | TC ([…], time 14 day): 68 mg/dL | TG ([…], time 14 day): 79.8 mg/dL | TP ([…], time 14 day): 5.9 g/dL | gamma-GTP ([…], time 14 day): 1 IU/L | A/G ([…], time 28 day): 1.3 | ALP ([…], time 28 day): 565.8 IU/L | ALT ([…], time 28 day): 34 IU/L | AST ([…], time 28 day): 61.2 IU/L | BUN ([…], time 28 day): 18.2 mg/dL | CRE ([…], time 28 day): 0.5 mg/dL | Ca ([…], time 28 day): 10.4 mg/dL | Cl ([…], time 28 day): 103.6 meq/L | DBIL ([…], time 28 day): 0.088 mg/dL | GLC ([…], time 28 day): 229.6 mg/dL | IP ([…], time 28 day): 7.1 mg/dL | K ([…], time 28 day): 4 meq/L | LDH ([…], time 28 day): 167.4 IU/L | Na ([…], time 28 day): 141.4 meq/L | PL ([…], time 28 day): 134 mg/dL | RALB ([…], time 28 day): 3.5 g/dL | TBIL ([…], time 28 day): 0.2 mg/dL | TC ([…], time 28 day): 72 mg/dL | TG ([…], time 28 day): 69.4 mg/dL | TP ([…], time 28 day): 6.1 g/dL | gamma-GTP ([…], time 28 day): 1.4 IU/L
